Measured values reported in PubChem BioAssay (NCI).
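Compound exposure: 48 hours, 5 concentrations, 96-well plates. Here, GI50 denotes the concentration required for 50% inhibition of growth. TGI denotes the concentration required for complete inhibition of growth.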

Assays:
Experiment in all cases: NCI-60 cell line screen, 48 h
786-0 renal = tested on: 786-0 renal
A498 renal = tested on: A498 renal
A549 NSCLC = tested on: A549 NSCLC
ACHN renal = tested on: ACHN renal
BT-549 breast = tested on: BT-549 breast
CAKI-1 renal = tested on: CAKI-1 renal
CCRF-CEM leukemia = tested on: CCRF-CEM leukemia
COLO 205 colon = tested on: COLO 205 colon
DU-145 prostate = tested on: DU-145 prostate
EKVX NSCLC = tested on: EKVX NSCLC
HCC-2998 colon = tested on: HCC-2998 colon
HCT-116 colon = tested on: HCT-116 colon
HCT-15 colon = tested on: HCT-15 colon
HL-60(TB) leukemia = tested on: HL-60(TB) leukemia
HOP-62 NSCLC = tested on: HOP-62 NSCLC
HOP-92 NSCLC = tested on: HOP-92 NSCLC
HS 578T breast = tested on: HS 578T breast
HT29 colon = tested on: HT29 colon
IGROV1 ovarian = tested on: IGROV1 ovarian
K-562 leukemia = tested on: K-562 leukemia
KM12 colon = tested on: KM12 colon
LOX IMVI melanoma = tested on: LOX IMVI melanoma
MALME-3M melanoma = tested on: MALME-3M melanoma
MCF7 breast = tested on: MCF7 breast
MDA-MB-231 breast = tested on: MDA-MB-231 breast
MDA-MB-468 breast = tested on: MDA-MB-468 breast
MOLT-4 leukemia = tested on: MOLT-4 leukemia
NCI-H226 lung = tested on: NCI-H226 lung
NCI-H23 lung = tested on: NCI-H23 lung
NCI-H460 lung = tested on: NCI-H460 lung
NCI-H522 lung = tested on: NCI-H522 lung
OVCAR-3 ovarian = tested on: OVCAR-3 ovarian
OVCAR-4 ovarian = tested on: OVCAR-4 ovarian
OVCAR-5 ovarian = tested on: OVCAR-5 ovarian
OVCAR-8 ovarian = tested on: OVCAR-8 ovarian
PC-3 prostate = tested on: PC-3 prostate
RPMI-8226 leukemia = tested on: RPMI-8226 leukemia
RXF 393 renal = tested on: RXF 393 renal
SF-268 CNS = tested on: SF-268 CNS
SF-295 CNS = tested on: SF-295 CNS
SF-539 CNS = tested on: SF-539 CNS
SK-MEL-28 melanoma = tested on: SK-MEL-28 melanoma
SK-MEL-5 melanoma = tested on: SK-MEL-5 melanoma
SK-OV-3 ovarian = tested on: SK-OV-3 ovarian
SN12C renal = tested on: SN12C renal
SNB-19 CNS = tested on: SNB-19 CNS
SNB-75 CNS = tested on: SNB-75 CNS
SR leukemia = tested on: SR leukemia
SW-620 colon = tested on: SW-620 colon
T-47D breast = tested on: T-47D breast
TK-10 renal = tested on: TK-10 renal
U251 CNS = tested on: U251 CNS
UACC-257 melanoma = tested on: UACC-257 melanoma
UACC-62 melanoma = tested on: UACC-62 melanoma
UO-31 renal = tested on: UO-31 renal

Compound `NC(=Nc1ccc(OCCCCCCCCn2cnnn2)cc1)c1ccccc1` has a GI50 (786-0 renal) of 507 nM, a TGI (786-0 renal) of 30900 nM and a GI50 (A498 renal) of 17400 nM. For the same compound, the TGI (A498 renal) was 63400 nM, the GI50 (A549 NSCLC) was 586 nM and the TGI (A549 NSCLC) was > 100000 nM. The GI50 (ACHN renal) was 659 nM, the TGI (ACHN renal) was 62000 nM and the GI50 (BT-549 breast) was 836 nM. For the same compound, the TGI (BT-549 breast) was 18800 nM, the GI50 (CAKI-1 renal) was 324 nM and the TGI (CAKI-1 renal) was 46100 nM. The GI50 (CCRF-CEM leukemia) was 358 nM, the TGI (CCRF-CEM leukemia) was 38200 nM and the GI50 (COLO 205 colon) was 284 nM. For the same compound, the TGI (COLO 205 colon) was 1860 nM, the GI50 (DU-145 prostate) was 438 nM and the TGI (DU-145 prostate) was > 100000 nM. For the same compound, the GI50 (EKVX NSCLC) was 418 nM, the TGI (EKVX NSCLC) was > 100000 nM and the GI50 (HCC-2998 colon) was 494 nM. The TGI (HCC-2998 colon) was 11700 nM, the GI50 (HCT-116 colon) was 353 nM and the TGI (HCT-116 colon) was 13800 nM. It also gave a GI50 (HCT-15 colon) of 272 nM, a TGI (HCT-15 colon) of 15400 nM and a GI50 (HL-60(TB) leukemia) of 246 nM. It also gave a TGI (HL-60(TB) leukemia) of 846 nM, a GI50 (HOP-62 NSCLC) of 439 nM and a TGI (HOP-62 NSCLC) of 18900 nM. It also gave a GI50 (HOP-92 NSCLC) of 8000 nM, a TGI (HOP-92 NSCLC) of 59400 nM and a GI50 (HS 578T breast) of 307 nM. The TGI (HS 578T breast) was 48800 nM, the GI50 (HT29 colon) was 269 nM and the TGI (HT29 colon) was 2260 nM. The GI50 (IGROV1 ovarian) was 717 nM, the TGI (IGROV1 ovarian) was 21800 nM and the GI50 (K-562 leukemia) was 183 nM. The TGI (K-562 leukemia) was > 55100 nM, the GI50 (KM12 colon) was 423 nM and the TGI (KM12 colon) was > 73100 nM. It also gave a GI50 (LOX IMVI melanoma) of 488 nM, a TGI (LOX IMVI melanoma) of 13900 nM and a GI50 (MALME-3M melanoma) of 266 nM. It also gave a TGI (MALME-3M melanoma) of 18200 nM, a GI50 (MCF7 breast) of 157 nM and a TGI (MCF7 breast) of 18900 nM. The GI50 (MDA-MB-231 breast) was 439 nM, the TGI (MDA-MB-231 breast) was 9700 nM and the GI50 (MDA-MB-468 breast) was 167 nM. For the same compound, the TGI (MDA-MB-468 breast) was 695 nM, the GI50 (MOLT-4 leukemia) was 460 nM and the TGI (MOLT-4 leukemia) was > 72200 nM. For the same compound, the GI50 (NCI-H226 lung) was 321 nM, the TGI (NCI-H226 lung) was 4550 nM and the GI50 (NCI-H23 lung) was 436 nM. The TGI (NCI-H23 lung) was 20100 nM, the GI50 (NCI-H460 lung) was 343 nM and the TGI (NCI-H460 lung) was 19000 nM. For the same compound, the GI50 (NCI-H522 lung) was 201 nM, the TGI (NCI-H522 lung) was 720 nM and the GI50 (OVCAR-3 ovarian) was 398 nM. The TGI (OVCAR-3 ovarian) was > 52000 nM, the GI50 (OVCAR-4 ovarian) was 12400 nM and the TGI (OVCAR-4 ovarian) was > 100000 nM. The GI50 (OVCAR-5 ovarian) was 458 nM, the TGI (OVCAR-5 ovarian) was > 41500 nM and the GI50 (OVCAR-8 ovarian) was 490 nM. For the same compound, the TGI (OVCAR-8 ovarian) was > 64800 nM, the GI50 (PC-3 prostate) was 454 nM and the TGI (PC-3 prostate) was 97700 nM. For the same compound, the GI50 (RPMI-8226 leukemia) was 364 nM, the TGI (RPMI-8226 leukemia) was 19600 nM and the GI50 (RXF 393 renal) was 216 nM. The TGI (RXF 393 renal) was 752 nM, the GI50 (SF-268 CNS) was 6870 nM and the TGI (SF-268 CNS) was > 79700 nM. It also gave a GI50 (SF-295 CNS) of 281 nM, a TGI (SF-295 CNS) of 12400 nM and a GI50 (SF-539 CNS) of 223 nM. For the same compound, the TGI (SF-539 CNS) was 606 nM, the GI50 (SK-MEL-28 melanoma) was 783 nM and the TGI (SK-MEL-28 melanoma) was > 49200 nM. For the same compound, the GI50 (SK-MEL-5 melanoma) was 282 nM, the TGI (SK-MEL-5 melanoma) was 1420 nM and the GI50 (SK-OV-3 ovarian) was 439 nM. For the same compound, the TGI (SK-OV-3 ovarian) was 35900 nM, the GI50 (SN12C renal) was 472 nM and the TGI (SN12C renal) was 18200 nM. The GI50 (SNB-19 CNS) was 594 nM, the TGI (SNB-19 CNS) was > 100000 nM and the GI50 (SNB-75 CNS) was 400 nM. For the same compound, the TGI (SNB-75 CNS) was 50200 nM, the GI50 (SR leukemia) was 75.2 nM and the TGI (SR leukemia) was > 50500 nM. The GI50 (SW-620 colon) was 352 nM, the TGI (SW-620 colon) was > 100000 nM and the GI50 (T-47D breast) was 392 nM. For the same compound, the TGI (T-47D breast) was 63200 nM, the GI50 (TK-10 renal) was 3060 nM and the TGI (TK-10 renal) was > 83700 nM. For the same compound, the GI50 (U251 CNS) was 383 nM, the TGI (U251 CNS) was > 63500 nM and the GI50 (UACC-257 melanoma) was 8360 nM. The TGI (UACC-257 melanoma) was > 60000 nM, the GI50 (UACC-62 melanoma) was 442 nM and the TGI (UACC-62 melanoma) was 19900 nM. For the same compound, the GI50 (UO-31 renal) was 555 nM and the TGI (UO-31 renal) was 40800 nM.
